From US20070128217A1 (priority 2003, published 2007)

Columns and labels:
[1] = system: control sera (pooled serum of ten healthy LUMC hospital workers; commercial negative donor pooled serum from the Dutch bloodbank); type: binding, human; parameters: Binding of Control serum LUMC to linear peptides / Binding of Control serum Blood-bank to linear peptides / Binding of Control serum LUMC to looped peptides / Binding of Control Serum Blood-Bank to Looped peptides / Binding of Control serum LUMC to linear peptides of the protein M of SARS-CoV Urbani / Binding of Control serum Blood-bank to linear peptides of the protein M of SARS-CoV Urbani / Binding of Control serum LUMC to looped peptides of the protein M of SARS-CoV Urbani / Binding of Control Serum Blood-Bank to Looped peptides of the protein M of SARS-CoV Urbani: unit not given here
[2] = system: rabbit serum obtained by immunizing a rabbit with the SARS-CoV strain Frankfurt 1; type: binding; parameters: Binding of a rabbit serum to linear peptides / Binding of a rabbit serum to looped peptides / Rabbit serum linear peptides / Rabbit serum looped peptides / Binding of a rabbit serum to linear peptides of protein N of SARS-CoV Urbani (Rabbit serum linear peptides) / Binding of a rabbit serum to looped/cyclic peptides of protein N of SARS-CoV Urbani (Rabbit serum looped peptides): unit not given here
[3] = system: recombinant human anti-SARS-CoV antibody 03-018; type: binding; parameters: Binding of antibody 03-018 to linear peptides of the N protein of SARS-CoV Urbani / Binding of antibody 03-018 to looped/cyclic peptides of the N protein of SARS-CoV Urbani: unit not given here
[4] = system: antibodies in sera from SARS patients (sera 1a, 1b, 2, 6, 37, 62, London, SARS-yellow, SARS-green); type: binding, human; parameters: Binding of serum 6 to linear peptides of protein X1 of SARS-CoV Urbani / Binding of serum 37 to linear peptides of protein X1 of SARS-CoV Urbani / Binding of serum 6 to looped/cyclic peptide (PEPSCAN-ELISA) / Binding of serum 37 to looped/cyclic peptide (PEPSCAN-ELISA) / Binding of serum 37 to looped/cyclic peptides of protein X1 of SARS-CoV Urbani / Binding of serum 6 to linear peptides of protein X2 / Binding of serum 37 to linear peptides of protein X2 / Binding of serum 37 to looped/cyclic peptides of protein X2 of SARS-CoV Urbani / Binding of serum 6 to linear peptides of protein M of SARS-CoV Urbani / Binding of serum 37 to linear peptides of protein M of SARS-CoV Urbani / Binding of serum 6 to looped/cyclic peptides of protein M of SARS-CoV Urbani / Binding of serum 37 to looped/cyclic peptides of protein M of SARS-CoV Urbani / Binding of serum 6 to linear peptides of protein X3 of SARS-CoV Urbani / Binding of serum 37 to linear peptides of protein X3 of SARS-CoV Urbani / Binding of serum 37 to looped/cyclic peptides of protein X3 of SARS-CoV Urbani / Binding of serum 6 to linear peptides of protein X4 of SARS-CoV Urbani / Binding of serum 37 to linear peptides of protein X4 of SARS-CoV Urbani / Binding of serum 37 to looped/cyclic peptides of protein X4 of SARS-CoV Urbani / Binding of serum 6 to linear peptides of protein X5 of SARS-CoV Urbani / Binding of serum 37 to linear peptides of protein X5 of SARS-CoV Urbani / Binding of serum 37 to looped/cyclic peptides of protein X5 of SARS-CoV Urbani / Binding of serum 6 to linear peptides of protein N of SARS-CoV Urbani / Binding of serum 37 to linear peptides of protein N of SARS-CoV Urbani / Binding of serum 6 to linear peptide (PEPSCAN-ELISA) / Binding of serum 1a to looped/cyclic peptides of protein N of SARS-CoV Urbani / Binding of serum 1b to looped/cyclic peptides of protein N of SARS-CoV Urbani / Binding of serum 2 to looped/cyclic peptides of protein N of SARS-CoV Urbani / Binding of serum 6 to looped/cyclic peptides of protein N of SARS-CoV Urbani / Binding of serum 37 to looped/cyclic peptides of protein N of SARS-CoV Urbani / Binding of serum 62 to looped/cyclic peptides of protein N of SARS-CoV Urbani / Binding of serum London to looped/cyclic peptides of protein N of SARS-CoV Urbani / Binding of serum SARS-green to looped/cyclic peptides of protein N of SARS-CoV Urbani: unit not given here

Row | Sequence | Binding of Control Serum Blood-Bank to Looped peptides [1] | Binding of Control serum Blood-bank to linear peptides [1] | Binding of Control serum LUMC to linear peptides [1] | Binding of Control serum LUMC to looped peptides [1] | Binding of a rabbit serum to linear peptides of protein N of SARS-CoV Urbani (Rabbit serum linear peptides) [2] | Binding of a rabbit serum to looped/cyclic peptides of protein N of SARS-CoV Urbani (Rabbit serum looped peptides) [2] | Binding of antibody 03-018 to linear peptides of the N protein of SARS-CoV Urbani [3] | Binding of antibody 03-018 to looped/cyclic peptides of the N protein of SARS-CoV Urbani [3] | Binding of serum 1a to linear peptides of protein N of SARS-CoV Urbani [4] | Binding of serum 1a to looped/cyclic peptides of protein N of SARS-CoV Urbani [4] | Binding of serum 1b to linear peptides of protein N of SARS-CoV Urbani [4] | Binding of serum 1b to looped/cyclic peptides of protein N of SARS-CoV Urbani [4] | Binding of serum 2 to linear peptides of protein N of SARS-CoV Urbani [4] | Binding of serum 2 to looped/cyclic peptides of protein N of SARS-CoV Urbani [4] | Binding of serum 6 to looped/cyclic peptides of protein N of SARS-CoV Urbani [4] | Binding of serum 37 to looped/cyclic peptides of protein N of SARS-CoV Urbani [4] | Binding of serum 62 to looped/cyclic peptides of protein N of SARS-CoV Urbani [4] | Binding of serum London to looped/cyclic peptides of protein N of SARS-CoV Urbani [4] | Binding of serum SARS-green to looped/cyclic peptides of protein N of SARS-CoV Urbani [4] | Binding of serum SARS-yellow to looped/cyclic peptides of protein N of SARS-CoV Urbani [4] | further results
1 | RRVRGGDGKMKELSP | 0.6 | 0.9 | 0.9 | 0.6 | 0.2 | 0.4 | 0.1 | 0.2 | 0.3 | 0.3 | 0.2 | 0.1 | 0.4 | 0.3 | 0.2 | 0.4 | 0.3 | 0.4 | 0.1 | 0.3 | Binding of serum 6 to linear peptides of protein N of SARS-CoV Urbani [4]: 0.2; Binding of serum 37 to linear peptides of protein N of SARS-CoV Urbani [4]: 0.7; Binding of serum 62 to linear peptides of protein N of SARS-CoV Urbani [4]: 0.8; Binding of serum London to linear peptides of protein N of SARS-CoV Urbani [4]: 0.6; Binding of serum SARS-green to linear peptides of protein N of SARS-CoV Urbani [4]: 0.4; Binding of serum SARS-yellow to linear peptides of protein N of SARS-CoV Urbani [4]: 0.8
2 | RSAPRITFGGPTDST | 0.6 | 0.6 | 0.5 | 0.6 | 0.3 | 0.7 | – | – | 0.2 | 0.3 | 0.1 | 0.2 | 0.1 | 0.3 | 0.2 | 0.5 | 0.4 | 0.3 | 0.4 | 0.5 | Recognition of the peptide by antibody 03-018 [3]: recognized; Binding of serum 6 to linear peptides of protein N of SARS-CoV Urbani [4]: 0.1; Binding of serum 37 to linear peptides of protein N of SARS-CoV Urbani [4]: 0.6; Binding of serum 62 to linear peptides of protein N of SARS-CoV Urbani [4]: 0.6; Binding of serum London to linear peptides of protein N of SARS-CoV Urbani [4]: 0.5; Binding of serum SARS-green to linear peptides of protein N of SARS-CoV Urbani [4]: 0.4; Binding of serum SARS-yellow to linear peptides of protein N of SARS-CoV Urbani [4]: 0.5
3 | RSRGNSRNSTPGSSR | 0.3 | 0.8 | 0.6 | 0.3 | 0.4 | 1.1 | 0.1 | 0.2 | – | 0.3 | – | 0.1 | – | 0.2 | 0.2 | 0.2 | 0.1 | 0.2 | 0.1 | 0.1 | Binding of serum 1a to linear peptide (PEPSCAN-ELISA) [4]: 0.7; Binding of serum 1b to linear peptide (PEPSCAN-ELISA) [4]: 0.4; Binding of serum 2 to linear peptide (PEPSCAN-ELISA) [4]: 0.2; Binding of serum 6 to linear peptide (PEPSCAN-ELISA) [4]: 0.2; Binding of serum 37 to linear peptide (PEPSCAN-ELISA) [4]: 0.7; Binding of serum 62 to linear peptide (PEPSCAN-ELISA) [4]: 0.6; Binding of serum London to linear peptide (PEPSCAN-ELISA) [4]: 0.5; Binding of serum SARS-green to linear peptide (PEPSCAN-ELISA) [4]: 0.2; Binding of serum SARS-yellow to linear peptide (PEPSCAN-ELISA) [4]: 0.6
4 | SAAEASKKPRQKRTA | 0.4 | 0.8 | 0.8 | 0.4 | 0.2 | 0.3 | 0.1 | 0.2 | – | 0.2 | – | 0.1 | – | 0.2 | 0.1 | 0.4 | 0.3 | 0.3 | 0.1 | 0.2 | Recognition of the peptide by sera of SARS-CoV infected individuals, and form (linear, looped/cyclic) in which it is recognized [4]: recognized in linear form
5 | SAFFGMSRIGMEVTP | – | – | – | – | 0.2 | 0.5 | 0.1 | 0.2 | 0.3 | 0.4 | 0.2 | 0.3 | 0.2 | 0.4 | 0.2 | 0.5 | 0.4 | 0.4 | 0.4 | 0.5 | Control Serum Blood-Bank Looped peptides [1]: 0.6; Control serum Blood-bank linear peptides [1]: 0.8; Control serum LUMC linear peptides [1]: 0.7; Control serum LUMC looped peptides [1]: 0.5; Binding of serum 6 to linear peptides of protein N of SARS-CoV Urbani [4]: 0.2; Binding of serum 37 to linear peptides of protein N of SARS-CoV Urbani [4]: 0.7; Binding of serum 62 to linear peptides of protein N of SARS-CoV Urbani [4]: 0.8; Binding of serum London to linear peptides of protein N of SARS-CoV Urbani [4]: 0.6; Binding of serum SARS-green to linear peptides of protein N of SARS-CoV Urbani [4]: 0.3; Binding of serum SARS-yellow to linear peptides of protein N of SARS-CoV Urbani [4]: 0.7
